Results reported in PMC10049699, “Identification and Empiric Evaluation of New Inhibitors of the Multidrug Transporter P-Glycoprotein (ABCB1)” (International Journal of Molecular Sciences, 2023).
Entries after “also recorded” stand apart in the source; their conditions may differ.

Assays:
Assay type in all cases: cell-based
ABCB1 [1] = target: T1, ABCB1 (Homo sapiens, UniProt P08183); assay: calcein-AM drug transport (accumulation) assay in live Flp-In-ABCB1 cells, flow cytometry; conditions: for IC50: Flp-In-ABCB1 cells, 30 min, n = 3 biological repeats, read-out: IC50 for inhibition of ABCB1 transport activity; for mean bottom plateau value of ABCB1 activity curve (efficacy): ratio of calcein content of ABCB1 non-expressing cells to whole population, full inhibition at 1.0; for effect on ABCB1: preliminary data, up to a concentration of 100 nM
T1 construct: expressed in transfected cells
Protocol: We have previously integrated a single copy of pcDNA5/FRT-ABCB1-12His into the genome of Flp-In 293 cells to generate the Flp-In-ABCB1 cell line. To prevent possible drug–drug interactions during the transport assay, the Flp-In-ABCB1 cells were cultured in the absence of hygromycin, which is normally used to select for the continued expression of the hygromycin resistance gene carried on the pcDNA5/FRT plasmid. […] We also used the non-toxic cell-permeant dye calcein-AM as a transport substrate of ABCB1 [35, 36].
The concentration of calcein-AM was titrated until the ABCB1-positive cells began to accumulate calcein. […] This concentration was used in all further live cell transport assays. To test whether the assay could be applied to drug inhibition studies, we incubated the Flp-In-ABCB1 cells with calcein-AM in the presence of the third-generation inhibitor tariquidar.
These are the cells that no longer express ABCB1 (population […] in Figure 2B) due either to deletion of the plasmid from the genome or, perhaps more likely, silencing of the locus by chromatin condensation. These cells survive in the absence of hygromycin selection, but they are useful as they provide an internal negative control that can be easily identified in the single channel histogram at the lowest level of inhibitor. Transport activity of the ABCB1 was, thus, calculated using the fold difference in median drug accumulation by this ABCB1 non-expressing population G4 at the lowest concentration of inhibitor versus the median drug accumulation across all cells (population G5), as described in Equation (1). (1) Median drug accumulation in ABCB1 non−expressing cells G4/Median drug accumulation in the whole population G5
(§1) Flp-In-293 and Flp-In-ABCB1-12His cells were grown as monolayers in Dulbecco’s modified Eagle medium (DMEM; ThermoFisher Sci, Waltham, MA, USA) supplemented with 10% foetal bovine serum (FBS; ThermoFisher Sci, Waltham, MA, USA). The cell lines were incubated in a humidified incubator at a temperature of 37 °C in an atmosphere of 5% CO2. For the drug transport assay, cells (3 × 10^5 per well) were seeded in a 24-well, flat-bottomed plate (Sarstedt AG and Co., Nümbrecht, Germany) in 500 μL growth medium and incubated for 24 h, as above. The medium was aspirated, and the cells were washed with the transport buffer (phenol-red free DMEM, with 1% FBS). Next, the cells were incubated with calcein-AM (Invitrogen, Waltham, MA, USA) at 250 nM or OG-taxol (Invitrogen, Waltham, MA, USA) at 0.4 μM in 200 μL transport buffer for 30 min at 37 °C in the presence or absence of inhibitor (Tariquidar was purchased from MedChemExpress (Monmouth Junction, NJ, USA) and the test inhibitors were from Chembridge Corporation (San Diego, CA, USA); Table 2). All test compounds, tariquidar, and calcein-AM were solubilized in DMSO and further diluted in transport buffer for the transport assay. The concentration of DMSO in the final solution never exceeded 1.1%, at which concentration it has no apparent effect on the cells or the function of ABCB1. The medium was then aspirated, and cells were washed with ice-cold transport buffer and harvested with 25 μL trypsin (TrypLE express enzyme; ThermoFisher Sci, Waltham, MA, USA). The cells were recovered in a flow cytometry tube in 300 μL ice-cold transport buffer for flow cytometry using a BD LSR II flow cytometer (Becton Dickinson, Franklin Lakes, NJ, USA).
In order to correlate ABCB1 expression with calcein-AM efflux activity, a slightly different order was used, as described previously. Briefly, the cells were first detached from the well and incubated with saturating levels of primary antibody 4E3 (0.5 μg, Abcam, Cambridge, UK) in 100 μL transport buffer on ice for 30 min. […]

ABCB1 [2] = target: T1, ABCB1; assay: OG-taxol efflux inhibition assay in Flp-In-ABCB1 cells, flow cytometry; conditions: 100 nM test compound, OG-taxol 0.4 μM
From the text: (§2) The four compounds are potent inhibitors of calcein-AM transport, but can they inhibit the efflux of chemotherapeutic drugs. To address this question, we first substituted a fluorescent derivative of the anticancer drug taxol for calcein-AM in a transport assay. […] We next tested whether the drugs would sensitise the Flp-In-ABCB1 cells to the clinically relevant form of taxol. The Flp-In-ABCB1 cells and their parental Flp-In cells were challenged over a three-day period with a range of concentrations of taxol in the presence and absence of test compounds at 100 nM concentration.
as §1

Flp-In parental cells = assay: Taxol challenge assay, parental cells / growth with inhibitor alone; conditions: for cytotoxicity of test compound: 100 nM, three-day (72 h) period, cell line not specified; for effect on the growth of the Flp-In parental cells: test compound at 100 nM
From the text: as §2
(§3) Flp-In-293 and Flp-In-ABCB1-12His cells (1 × 10^4) were seeded into a 96-well dish in 100 μL of medium, as above. Taxol (Cambridge Bioscience, Cambridge, UK) was added to a final concentration ranging from 0 nM to 10 μM in the presence or absence of inhibitors at 100 nM. The cells were cultured for a further 72 h, after which the medium was aspirated, and the cells were detached with 30 μL TrypLE Express (ThermoFisher Sci, Waltham, MA, USA) before quenching with 75 μL transport buffer and transfer to flow cytometry tubes. Cells of normal size and granularity, gated on the zero-drug condition and then applied to all samples, were counted in an ACEA NovoCyte flow cytometer (Agilent Technologies, Santa Clara, CA, USA). Cell number data were analysed in Graphpad PRISM (MacOS Version 9.4.1; GraphPad Software, San Diego, CA, USA). Curve fitting and statistical analysis was performed as above.

[3] = Taxol challenge assay (resensitisation to taxol); conditions: human; Flp-In-ABCB1 (ABCB1 wt) cells, three-day culture, n = 3; read-out: IC50 for taxol (cell number) in the absence of inhibitor
From the text: as §2, §3

Flp-In-ABCB1 cells = assay: Taxol challenge assay (resensitisation to taxol); conditions: test compound at 100 nM, three-day period
From the text: as §2, §3

[4] = ratio of IC50 values, calcein-AM assay

T1 sequence (P08183 whole entry): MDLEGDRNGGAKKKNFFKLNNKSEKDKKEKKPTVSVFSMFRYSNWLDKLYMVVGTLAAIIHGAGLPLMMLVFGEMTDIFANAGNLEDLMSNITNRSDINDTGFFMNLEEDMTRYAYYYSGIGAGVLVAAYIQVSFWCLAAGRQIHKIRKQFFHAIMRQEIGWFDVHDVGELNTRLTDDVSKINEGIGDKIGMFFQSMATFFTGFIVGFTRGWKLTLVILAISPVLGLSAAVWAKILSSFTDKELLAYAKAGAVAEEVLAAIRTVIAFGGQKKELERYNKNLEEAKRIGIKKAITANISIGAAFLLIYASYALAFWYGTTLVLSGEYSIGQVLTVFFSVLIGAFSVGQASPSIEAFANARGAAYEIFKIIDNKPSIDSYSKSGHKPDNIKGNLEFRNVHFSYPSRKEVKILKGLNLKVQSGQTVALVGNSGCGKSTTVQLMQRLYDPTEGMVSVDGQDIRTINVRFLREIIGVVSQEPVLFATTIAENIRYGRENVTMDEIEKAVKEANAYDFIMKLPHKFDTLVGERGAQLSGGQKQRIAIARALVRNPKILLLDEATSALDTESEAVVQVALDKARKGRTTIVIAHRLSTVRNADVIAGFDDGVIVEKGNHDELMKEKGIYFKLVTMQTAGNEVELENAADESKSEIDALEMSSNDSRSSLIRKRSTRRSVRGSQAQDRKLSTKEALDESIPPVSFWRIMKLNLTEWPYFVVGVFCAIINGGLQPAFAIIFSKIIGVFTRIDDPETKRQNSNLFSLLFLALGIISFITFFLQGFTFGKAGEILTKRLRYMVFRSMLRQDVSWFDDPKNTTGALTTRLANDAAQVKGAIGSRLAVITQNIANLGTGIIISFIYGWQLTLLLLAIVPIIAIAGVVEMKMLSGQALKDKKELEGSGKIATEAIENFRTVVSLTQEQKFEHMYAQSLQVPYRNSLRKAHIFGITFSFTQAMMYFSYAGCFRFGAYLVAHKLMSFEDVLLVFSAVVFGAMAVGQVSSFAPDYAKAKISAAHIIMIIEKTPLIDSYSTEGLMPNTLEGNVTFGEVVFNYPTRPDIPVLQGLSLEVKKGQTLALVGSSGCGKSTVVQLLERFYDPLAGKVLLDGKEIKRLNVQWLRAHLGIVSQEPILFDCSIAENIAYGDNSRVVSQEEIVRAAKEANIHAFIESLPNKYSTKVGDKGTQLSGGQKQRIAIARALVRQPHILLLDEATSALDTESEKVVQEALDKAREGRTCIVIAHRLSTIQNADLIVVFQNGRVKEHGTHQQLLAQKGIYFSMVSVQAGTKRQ

| IC50 (ABCB1 [1]; 250 nM calcein-AM) [nM] | fold less potent than tariquidar (ABCB1 [1]; [4]) [fold] | mean bottom plateau value of ABCB1 activity curve (efficacy) (ABCB1 [1]) | inhibition of OG-taxol efflux by ABCB1 (ABCB1 [2]) | Compound | other results |
| --- | --- | --- | --- | --- | --- |
| 4.8 | 42 | 0.36 | inhibition of OG-taxol efflux | Cc1cccc(N2CCN(c3cc(C4CC(N)C4)nc(C4CC4)n3)CC2)c1C.Cl.Cl (stereo not drawn) [F, (3-{2-cyclopropyl-6-[4-(2,3-dimethylphenyl)-1-piperazinyl]-4-pyrimidinyl}cyclobutyl)amine dihydrochloride] | cytotoxicity of test compound (Flp-In parental cells): did kill cells; also recorded: cytotoxic |
| 0.114 | – | 0.78 | – | COc1cc2c(cc1OC)CN(CCc1ccc(NC(=O)c3cc(OC)c(OC)cc3NC(=O)c3cnc4ccccc4c3)cc1)CC2 [Tariquidar, N-[2-[[4-[2-(6,7-dimethoxy-3,4-dihydro-1H-isoquinolin-2-yl)ethyl]phenyl]carbamoyl]-4,5-dimethoxyphenyl]quinoline-3-carboxamide, reference compound] | inhibition of ABCB1 (calcein accumulation to level of parental Flp-In cells) (ABCB1 [1]; 1 nM tariquidar, 250 nM calcein-AM): fully inhibited |
| 14.6 | 128 | 0.93 | inhibition of OG-taxol efflux | Cc1ccc(N2CCN(c3cc(C4CC(N)C4)nc(N)n3)CC2)cc1C (stereo not drawn) [E, 4-(3-aminocyclobutyl)-6-[4-(3,4-dimethylphenyl)piperazin-1-yl]pyrimidin-2-amine] | cytotoxicity of test compound (Flp-In parental cells): did kill cells; also recorded: cytotoxic |
| – | – | – | – | CC(=O)O[C@H]1C(=O)[C@@]2(C)[C@H]([C@H](OC(=O)c3ccccc3)[C@]3(O)C[C@H](OC(=O)[C@H](O)[C@@H](NC(=O)c4ccccc4)c4ccccc4)C(C)=C1C3(C)C)[C@]1(OC(C)=O)CO[C@@H]1C[C@@H]2O [taxol, reference compound] | IC50 at 72 h [3]: 125 nM; IC50 (Flp-In parental cells; 72 h, Flp-In parental cells, three-day culture, n = 3, read-out: IC50 for taxol (cell number) in the absence of inhibitor): 5 nM |
| – | – | – | – | Cc1nnc(NS(=O)(=O)c2ccc3c(c2)CN(C(=O)[C@H](N)C(C)C)CC3)s1 [C, N-(5-methyl-1,3,4-thiadiazol-2-yl)-2-D-valyl-1,2,3,4-tetrahydroisoquinoline-7-sulfonamide] | effect on ABCB1 (ABCB1 [1]; 250 nM calcein-AM): no effect |
| 1.4 | 12 | 1.0 | inhibition of OG-taxol efflux | O=C1CCC(CCNCc2ccccc2)N1Cc1ccc(-n2cccn2)cc1 (stereo not drawn) [A, 5-[2-(benzylamino)ethyl]-1-[4-(1H-pyrazol-1-yl)benzyl]-2-pyrrolidinone] | resensitisation of Flp-In-ABCB1 cells to taxol (Flp-In-ABCB1 cells): resensitised; effect on the growth of the Flp-In parental cells (Flp-In parental cells; three-day culture): no effect; also recorded: do not inhibit cell growth |
| – | – | – | – | Cc1ccc(CNC(=O)C2CCN(c3cc(C4CC(N)C4)nc(C)n3)CC2)cc1.Cl.Cl (stereo not drawn) [B, 1-[6-(3-aminocyclobutyl)-2-methylpyrimidin-4-yl]-N-(4-methylbenzyl)piperidine-4-carboxamide dihydrochloride] | effect on ABCB1 (ABCB1 [1]; 250 nM calcein-AM): no effect |
| 23.6 | 200 | 0.58 | inhibition of OG-taxol efflux | Cc1cccc(N2CCN(CC(=O)Nc3nnc(CCN(C)C)s3)CC2)c1 [D, N-{5-[2-(dimethylamino)ethyl]-1,3,4-thiadiazol-2-yl}-2-[4-(3-methylphenyl)piperazin-1-yl]acetamide] | fold less potent than test compound 'A' (ABCB1 [1]; [4]): 17 fold; resensitisation of Flp-In-ABCB1 cells to taxol (Flp-In-ABCB1 cells): resensitised; effect on the growth of the Flp-In parental cells (Flp-In parental cells; three-day culture): no effect; also recorded: do not inhibit cell growth |
